Assay results from patent US4722931A, “Calcium antagonist” (Laboratorios Delagrange, priority 1984, dated 1988).
Where a name gives a salt, the structure may show the parent alone. Read-outs that look alike come from different tables or passages of the source.

How the values were obtained:
[1] = test system: SHR rats; test: Antihypertensive efficacy in SHR rats (systolic blood pressure, tail cuff); format: in vivo, spontaneously hypertensive rats (SHR); conditions: for maximum decrease of blood pressure, mm Hg / inhibition in vivo at 8 mg/kg: n = 5; for inhibition in vivo at 8 mg/kg: Rattus norvegicus, po, Table 2, read-out: maximum decrease of blood pressure, %; for in vivo antihypertensive activity, in words: p.os
Protocol: The systolic blood pressure was measured on the tail of conscious, spontaneously hypertensive rats (SHR), by means of an inflatable rubber cuff and a Digital Pressure meter LE 5000 (Letica Instruments, Barcelone, Spain). Measurements were carried out before administration of the substance, as well as 30 minutes, 1 h, 2, 6, and 24 hours afterwards, respectively. The animals were kept in pre-warmed plastic cylinders during the measurements. The rats with a blood pressure lesser than 160 mm. Hg were discarded. Each compound was tested in 5 animals. Compounds of this invention, or nitrendipine which was used as positive control were given orally in the form of suspensions in 5% acacia gum.

[2] = test system: KCl depolarized rat aorta; test: Inhibitory effects on rat aorta contractions induced by KCl (in vitro); format: cell-based, Wistar rats; conditions: for activity relative to compound 7 (IC 50): same test, compared with compound 7
Source text: Inhibitory effects on rat aorta contractions induced by KCl: […]

[3] = KCl 80 mM depolarized rat aorta, Table 1, read-out: IC × 10^-8
[4] = rat aorta contractions induced by KCl 80 mM
[5] = rat aorta contractions induced by KCl 80 mM, read-out: IC 50

Compound | IC50 [2, 3] [nM] | maximum decrease of blood pressure, mm Hg ([1]; 8 mg./kg. p.os) [mm Hg] | inhibition in vivo at 8 mg/kg ([1]; 8 mg./kg. p.os) [%] | other results
CCOC(=O)C1=C(C)NC(C)=C(C(=O)OC)C1c1cccc2c1OCCO2 (stereo not drawn) [Compound 8, 1,4-dihydro-2,6-dimethyl-4-(2',3'-ethylenedioxyphenyl)-3,5-pyridinedicarboxylic acid, methyl ethyl ester] | 45 | 12 | 7.2 | in vivo antihypertensive activity, in words ([1]; SHR rats): a little antihypertensive effect; in vivo antihypertensive activity, in words ([1]; SHR rats, listed as IQB-838 V): very active; in vitro activity, in words [2, 4]: rather active in vitro; in vitro activity, in words ([2]; rat aorta contractions induced by KCl 80 mM, listed as IQB-838 V): very active
COC(=O)C1=C(C)NC(C)=C(C(=O)OC)C1c1cccc2c1OCO2 [Compound 9, 1,4-dihydro-2,6-dimethyl-4-(2',3'-methylenedioxyphenyl)-3,5-pyridinedicarboxylic acid, dimethyl ester] | 83 |  |  | 
COC(=O)C1=C(C)NC(C)=C(C(=O)OCC(C)C)C1c1cccc2c1OCO2 (stereo not drawn) [Compound 10, 1,4-dihydro-2,6-dimethyl-4-(2',3'-methylenedioxyphenyl)-3,5-pyridinedicarboxylic acid, methyl isobutyl ester] | 12 | 48 | 23.5 | in vivo antihypertensive activity, in words ([1]; SHR rats): also active in vivo
COCCOC(=O)C1=C(C)NC(C)=C(C(=O)OC(C)C)C1c1cccc2c1OCO2 (stereo not drawn) [Compound 11, 1,4-dihydro-2,6-dimethyl-4-(2',3'-methylenedioxyphenyl)-3,5-pyridinedicarboxylic acid, isopropyl methoxyethyl ester] | 91 |  |  | 
CC1=C(C(=O)OC(C)C)C(c2cccc3c2OCO3)C(C(=O)OC(C)C)=C(C)N1 [Compound 12, 1,4-dihydro-2,6-dimethyl-4-(2',3'-methylenedioxyphenyl)-3,5-pyridinedicarboxylic acid, diisopropyl ester] | > 100 |  |  | 
COC(=O)C1=C(C)NC(C)=C(C(=O)OC(C)C)C1c1cccc2c1OCO2 (stereo not drawn) [Compound 13, 1,4-dihydro-2,6-dimethyl-4-(2',3'-methylenedioxyphenyl)-3,5-pyridinedicarboxylic acid, methyl isopropyl ester] | 34 | 10 | 5.2 | 
CCOC(=O)C1=C(C)NC(C)=C(C(=O)OCC)C1c1cccc2c1OCO2 [Compound 14, 1,4-dihydro-2,6-dimethyl-4-(2',3'-methylenedioxyphenyl)-3,5-pyridinedicarboxylic acid, diethyl ester] | > 100 |  |  | 
CCOC(=O)C1=C(C)NC(C)=C(C(=O)OC(C)C)C1c1cccc2c1OCO2 (stereo not drawn) [Compound 15, 1,4-dihydro-2,6-dimethyl-4-(2',3'-methylenedioxyphenyl)-3,5-pyridinedicarboxylic acid, ethyl isopropyl ester] | 2.1 | 62 | 32.4 | in vivo antihypertensive activity, in words ([1]; SHR rats): also active in vivo; IC50 [2, 5]: 2.1 nM; activity relative to compound 7 (IC 50) [2]: as active as compound 7
COCCOC(=O)C1=C(C)NC(C)=C(C(=O)OCCOC)C1c1cccc2c1OCO2 [Compound 16, 1,4-dihydro-2,6-dimethyl-4-(2',3'-methylenedioxyphenyl)-3,5-pyridinedicarboxylic acid, dimethoxyethyl ester] | > 100 |  |  | 
COC(=O)C1=C(C)NC(C)=C(C(=O)OCc2ccccn2)C1c1cccc2c1OCO2 (stereo not drawn) [Compound 17, 1,4-dihydro-2,6-dimethyl-4-(2',3'-methylenedioxyphenyl)-3,5-pyridinedicarboxylic acid, methyl, 2-pyridylmethyl ester, hydrochloride] | > 100 |  |  | 
COC(=O)C1=C(C)NC(C)=C(C(=O)OC)C1c1ccccc1[N+](=O)[O-] [Nifedipine, nifedipine, reference compound] | 7.1 |  |  | IC50 [2, 5]: 7.5 nM; activity relative to compound 7 (IC 50) [2]: about two times less active than compound 7
CCOC(=O)C1=C(C)NC(C)=C(C(=O)OC)C1c1cccc([N+](=O)[O-])c1 (stereo not drawn) [nitrendipine, reference compound] |  | 54 | 26.3 | 

More lines, main results first:

IC50 [2, 3] [nM] | Compound | maximum decrease of blood pressure, mm Hg ([1]; 8 mg./kg. p.os) [mm Hg] | inhibition in vivo at 8 mg/kg ([1]; 8 mg./kg. p.os) [%] | other results
> 100 | CCOC(=O)C1=C(C)NC(C)=C(C(=O)OC)C1c1cc(OC)c(OC)c(OC)c1 (stereo not drawn) [Compound 1, 1,4-dihydro-2,6-dimethyl-4-(3',4',5'-trimethoxyphenyl)-3,5-pyridinedicarboxylic acid, methyl ethyl ester] | 9.8 | 5 | in vitro activity, in words [2, 4]: little or no activity
> 100 | CCOC(=O)C1=C(C)NC(C)=C(C(=O)OC)C1c1ccc(OC)c(OC)c1 (stereo not drawn) [Compound 2, 1,4-dihydro-2,6-dimethyl-4-(3',4'-dimethoxyphenyl)-3,5-pyridinedicarboxylic acid, methyl ethyl ester] |  |  | in vitro activity, in words [2, 4]: little or no activity
> 100 | CCOC(=O)C1=C(C)NC(C)=C(C(=O)OC)C1c1cc(OC)c(O)c(OC)c1 (stereo not drawn) [Compound 3, 1,4-dihydro-2,6-dimethyl-4-(3',5'-dimethoxy-4'-hydroxyphenyl)-3,5-pyridinedicarboxylic acid, methyl ethyl ester] |  |  | in vitro activity, in words [2, 4]: little or no activity
> 100 | CCOC(=O)C1=C(C)NC(C)=C(C(=O)OC)C1c1cccc(OC)c1OC (stereo not drawn) [Compound 4, 1,4-dihydro-2,6-dimethyl-4-(2',3'-dimethoxyphenyl)-3,5-pyridinedicarboxylic acid, ethyl methyl ester] |  |  | 
92 | CCOC(=O)C1=C(C)NC(C)=C(C(=O)OC)C1c1cc(OC)cc(OC)c1 (stereo not drawn) [Compound 5, 1,4-dihydro-2,6-dimethyl-4-(3',5'-dimethoxyphenyl)-3,5-pyridinedicarboxylic acid, ethyl methyl ester] |  |  | 
12 | CCOC(=O)C1=C(C)NC(C)=C(C(=O)OC)C1c1ccccc1OCOC (stereo not drawn) [Compound 6, 1,4-dihydro-2,6-dimethyl-4-(2'-methoxymethoxy-phenyl)-3,5-pyridinedicarboxylic acid, ethyl methyl ester] | 34 | 15.2 | in vivo antihypertensive activity, in words ([1]; SHR rats): also active in vivo
3.1 | CCOC(=O)C1=C(C)NC(C)=C(C(=O)OC)C1c1cccc2c1OCO2 (stereo not drawn) [Compound 7, 1,4-dihydro-2,6-dimethyl-4-(2',3'-methylenedioxyphenyl)-3,5-pyridinedicarboxylic acid, ethyl methyl ester] | 65 | 33 | decreasing blood pressure by ([1]; 8 mg./kg. p.os, SHR rats): 30%; in vivo antihypertensive activity, in words ([1]; SHR rats): as active as nitrendipine; in vivo antihypertensive activity, in words ([1]; SHR rats, listed as IQB-837 V): very active; in vitro activity, in words [2, 4]: the most active within the series of methyl ethyl ester derivatives; in vitro activity, in words ([2]; rat aorta contractions induced by KCl 80 mM, listed as IQB-837 V): very active; IC50 [2, 5]: 3.5 nM
